Laboratory results from ChEMBL document CHEMBL4483862, “Open-source discovery of chemical leads for next-generation chemoprotective antimalarials” (2018).

Test system: Plasmodium berghei
Test: Luciferase/luciferin-expressing antifolate-resistant parasites were used to infect a culture of HepG2 cells that were pre-incubated with compounds. Infected hepatocytes emit light due to the luciferase reaction. Assay results are presented as the percent inhibition of light emission compared to control. […]
Assay type: functional
Settings: sporozoite; for IC50: read-out: LUCIFERASE INFECTION ASSAY - IC50; for IC90: read-out: LUCIFERASE INFECTION ASSAY - IC90

Structure (SMILES) | IC50 [µM] | IC90 [µM]
CNc1ccccc1C(C)(C)c1cc(-c2ccc(F)cc2)no1 | 8.62 | > 10
Cc1ccc(C(C)C)cc1OCc1nnc2n(C)c(=O)c3ccccc3n12 | > 10 | > 10
CC(=O)c1c(C)[nH]c(C(=O)Nc2nc(-c3ccc4c(c3)CCC4)cs2)c1C | 6.23 | > 10
Cc1nc(Sc2nnc3ccccn23)c2c3c(sc2n1)CCCC3 | 2.94 | 3.52
Cc1ccccc1CN1CCN(c2cc(=O)n3ccccc3n2)CC1 | 6.42 | > 10
Cc1cc(C(=O)NCCNC(=O)c2cccn2C)c2nc3n(c2n1)CCCCC3 | > 10 | > 10
CC(c1ccc(-n2cncn2)cc1)N(C)c1ccc2nnnn2n1 (configuration not stated) | > 10 | > 10
Cc1ccc(C)c(OCCCN2C(=O)NC(Cc3c[nH]c4ccccc34)C2=O)c1 (configuration not stated) | > 10 | > 10
COc1ccc(-c2cc(NC(=O)c3cc(Cl)c(Cl)[nH]3)ccc2OC)cc1 | 3.49 | 4.33
CCCn1c(SCc2ccccc2F)n[nH]c1=O | > 10 | > 10
Cc1ccc(COC(=O)c2ccccc2S(=O)(=O)N2CCCCC2)cc1 | 9.7 | > 10
CCc1ccc(C(NCC(=O)NC(=O)NC)C(C)C)cc1 (configuration not stated) | > 10 | > 10
Cc1cc(CNC(C)c2cc(F)c(Cl)cc2Cl)cc(C)c1O (configuration not stated) | > 10 | > 10
Cc1[nH]c2ccc(C(=O)Nc3nc(CN4CCCC(C)C4)cs3)cc2c1C (configuration not stated) | > 10 | > 10
COc1ccc(C(=O)Nc2ccc(N3CCOCC3)cc2)cn1 | > 10 | > 10
Cc1cccc(COC(=O)C2CCN(C3=NS(=O)(=O)c4ccccc43)CC2)c1 | > 10 | > 10
Cc1nn(CC(C)C)c(C)c1CC(=O)NCc1ccccc1Cn1cccn1 | > 10 | > 10
Cc1ccc(C)c(OCCSc2ccc(C(=O)NC3CC3)cn2)c1 | 3.35 | 3.93

Structure (SMILES) | IC50 [µM] | IC90 [µM]
CCC(C)(C)C1CCC(NC(=O)c2ccc(OC)c(OC)c2OC)CC1 (configuration not stated) | > 10 | > 10
O=C(NC1CC1)N1CCN(S(=O)(=O)c2ccc3c(c2)OCCCO3)CC1 | > 10 | > 10
O=C(c1cccc(-c2nn[nH]n2)c1)N1CCC2CCCCC2C1 (configuration not stated) | > 10 | > 10
COc1ccc(N(CCC(N)=O)CC(=O)NC(C)c2ccccc2OC)cc1 (configuration not stated) | > 10 | > 10
OC(CNCC1COc2ccccc2C1)COc1ccc(Cl)cc1Cl (configuration not stated) | > 10 | > 10
O=C(CCSc1nc(NC2CC2)c2ccccc2n1)N1CCc2ccccc21 | 3.46 | 7.86
CNS(=O)(=O)c1cc(NS(=O)(=O)/C=C/c2ccccc2)ccc1C | > 10 | > 10
CCOc1cc(C(=O)NCCNC(=O)C(C)C)cc(OCC)c1OCC | > 10 | > 10
COC(=O)CCSc1nnc(Nc2ccc(OC(F)(F)F)cc2)s1 | > 10 | > 10
CC(Nc1ccc(OC(F)(F)F)cc1)C(=O)Nc1ccc(C#N)c(Cl)c1 (configuration not stated) | 8.9 | > 10
COC(=O)c1c(C)[nH]c(-c2csc(N3CCCCC3)n2)c1C | > 10 | > 10
Cc1cc(C(=O)CN2C(=O)NC(C)(c3ccc(C(C)(C)C)cc3)C2=O)c(C)n1C (configuration not stated) | > 10 | > 10
COc1ccc(C(NCc2cccc3ccccc23)C2CC2)cc1 (configuration not stated) | > 10 | > 10
COc1ccc(-n2ccnc2SCc2nc(N)c3ccccc3n2)cc1 | > 10 | > 10
COc1ccc(C(=O)C2CCN(C(=O)c3cnc(C)cn3)CC2)cc1 | > 10 | > 10
Cc1ccc(-n2c(C)cc(/C=C3\N=C4CCCCCN4C3=O)c2C)c(C)c1 | > 10 | > 10
Cc1cccc(-c2nc(-c3cc(C)n(-c4nnc[nH]4)c3C)cs2)c1 | 9.67 | > 10
C=CCn1c(COc2ccccc2F)nnc1Sc1cc(C)nc2ncnn12 | > 10 | > 10
